Experimental data as given in ChEMBL document CHEMBL1201862, “PubChem BioAssay data set” (2004).
Activity calls are given as the source filed them.

Columns and labels:
[1] = target: Troponin, cardiac muscle (Homo sapiens, UniProt P19429+P45379+P63316); test: Fluorescence-based biochemical high throughput dose response assay for activators of the calcium sensitivity of cardiac Regulated Thin Filaments (RTF). [Related pubchem assays (depositor defined):AID493008, AID493018, AID504382, AID504383]; type: protein-complex assay
[2] = target: Coagulation factor XII (Homo sapiens, UniProt P00748); type: functional;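 also: activated factor XIIa alpha cleaving a fluorogenic AMC peptide substrate; inhibitor potency from loss of enzyme activity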
[3] = target: Prothrombin (Homo sapiens, UniProt P00734); test: Thrombin 1536 HTS Dose Response Confirmation. [Related pubchem assays: 1046 (Thrombin 1536 HTS; hits were confirmed in this assay)]; type: functional
[4] = target: T1, Cannabinoid receptor 2 (Homo sapiens, UniProt P34972); test: SAR analysis of antagonists of the Cannabinoid Receptor 2 using an Image-Based Assay - Set 2. [Related pubchem assays (depositor defined):AID1961, AID1965]; type: functional
[5] = target: T1, Cannabinoid receptor 2; test: SAR analysis of agonists of the Cannabinoid Receptor 2 using an Image-Based Assay - Set 2. [Related pubchem assays (depositor defined):AID1961, AID1965]; type: functional
[6] = target: T2, G-protein coupled receptor 35 (Homo sapiens, UniProt Q9HC97); test: SAR analysis of Agonists of the GPR35 Receptor using an Image-Based Assay - Set 3. [Related pubchem assays (depositor defined):AID1961, AID1965]; type: functional
[7] = target: T3, Cannabinoid receptor 1 (Homo sapiens, UniProt P21554); test: SAR analysis of antagonists of the Cannabinoid Receptor 1 using an Image-Based Assay - Set 3. [Related pubchem assays (depositor defined):AID1961, AID1965]; type: functional
[8] = target: T2, G-protein coupled receptor 35; test: SAR analysis of Antagonists of the GPR35 Receptor using an Image-Based Assay - Set 4. [Related pubchem assays (depositor defined):[…]]; type: functional
[9] = cells
[10] = target: T3, Cannabinoid receptor 1; test: SAR analysis of agonists of the Cannabinoid Receptor 1 using an Image-Based Assay - Set 3. [Related pubchem assays (depositor defined):AID1961, AID1965]; type: functional
[11] = target: Major prion protein (Homo sapiens, UniProt P04156); type: functional, cell-based
[12] = target: G-protein coupled receptor 55 (Homo sapiens, UniProt Q9Y2T6); test: SAR analysis of selective Agonists of GPR55 using an Image-Based Assay - Set 2. [Related pubchem assays (depositor defined):AID1961, AID1965]; type: functional
[13] = target: E3 ubiquitin-protein ligase Mdm2/Protein Mdm4 (Homo sapiens, UniProt O15151+Q00987); test: Mdm2-MdmX interaction inhibitors, dose response, luminescence detection (AID 504593); type: functional
[14] = target: T2, G-protein coupled receptor 35; test: GPR35 antagonists blocking zaprinast-driven arrestin recruitment, primary screen, imaging, U2OS, beta-arrestin-GFP, zaprinast agonist (AID 2058); type: functional;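 also: antagonist potency meaning inhibition of agonist-induced arrestin redistribution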
[15] = target: T4, Microphthalmia-associated transcription factor (Homo sapiens, UniProt O75030); test: TRPM1 promoter luciferase signal decrease, dose response, MITF inhibitor project, cell-based, SK-MEL-5, cherry-picked, set 3 (AID 493073); type: functional
T4 sequence (O75030 whole entry): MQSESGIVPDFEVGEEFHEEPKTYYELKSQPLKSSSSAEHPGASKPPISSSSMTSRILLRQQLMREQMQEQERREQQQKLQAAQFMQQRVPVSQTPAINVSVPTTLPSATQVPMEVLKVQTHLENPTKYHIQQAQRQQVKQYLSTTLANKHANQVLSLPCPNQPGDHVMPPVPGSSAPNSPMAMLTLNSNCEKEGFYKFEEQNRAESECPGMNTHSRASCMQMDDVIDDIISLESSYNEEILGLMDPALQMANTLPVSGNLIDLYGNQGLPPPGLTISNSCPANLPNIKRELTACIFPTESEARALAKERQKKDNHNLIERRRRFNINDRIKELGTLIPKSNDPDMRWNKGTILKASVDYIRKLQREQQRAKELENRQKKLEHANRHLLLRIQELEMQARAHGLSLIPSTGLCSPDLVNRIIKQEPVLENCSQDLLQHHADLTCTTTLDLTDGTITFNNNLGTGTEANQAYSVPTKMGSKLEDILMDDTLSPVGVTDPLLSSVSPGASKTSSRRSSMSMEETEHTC

[16] = system: A-375; test: A375 melanoma cell viability reduction, dose response, counter-screen for MITF modulator project, cherry-pick samples, set 2 (AID 540335); type: functional, cell-based; conditions: Homo sapiens
[17] = target: T5, Sphingosine 1-phosphate receptor 4 (Homo sapiens, UniProt O95977); test: Late-stage fluorescence dose response cell-based assay to identify agonists of the Sphingosine 1-Phosphate Receptor 4 (S1P4): purchased compounds EC50. [Related pubchem assays (depositor defined):AID1509, AID1523, AID1563, AID1686, AID1701, AID1801]; type: functional
T5 sequence (O95977 whole entry): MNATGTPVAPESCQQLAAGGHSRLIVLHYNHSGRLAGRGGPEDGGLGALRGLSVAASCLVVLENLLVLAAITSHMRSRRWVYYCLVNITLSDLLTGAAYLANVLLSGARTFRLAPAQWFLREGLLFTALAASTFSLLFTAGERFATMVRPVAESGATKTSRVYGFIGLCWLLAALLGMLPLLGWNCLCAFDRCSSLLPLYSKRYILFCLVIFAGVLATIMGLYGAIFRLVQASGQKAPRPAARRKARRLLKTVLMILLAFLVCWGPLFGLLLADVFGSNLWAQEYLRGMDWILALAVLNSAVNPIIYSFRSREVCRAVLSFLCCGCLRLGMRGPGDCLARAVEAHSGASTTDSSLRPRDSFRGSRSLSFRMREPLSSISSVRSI

[18] = target: T6, Voltage-gated N-type calcium channel alpha-1B subunit/Amyloid beta A4 precursor protein-binding family A member 1 (Homo sapiens, UniProt Q00975+Q02410); type: protein assay
[19] = target: T6, Voltage-gated N-type calcium channel alpha-1B subunit/Amyloid beta A4 precursor protein-binding family A member 1; type: protein assay; remark: listed apart in the source
[20] = target: Genome polyprotein (Hepatitis C virus, UniProt Q2Q167); test: HCV core protein dimerization inhibitors, dose response, biochemical, TR-FRET (AID 2159); design: species or system Hepacivirus hominis;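 also: blocks dimerization of HCV core protein measured by TR-FRET between tagged core106 pairs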
[21] = target: T7, SUMO-activating enzyme (Homo sapiens, UniProt Q9UBT2); test: SUMOylation inhibitor hit validation, confirmation, SUMOylation inhibitor project, biochemical, AlphaScreen (AID 2018); type: functional
[22] = target: T7, SUMO-activating enzyme; test: inhibitors of in vitro SUMOylation cascade, primary screen, biochemical, HTRF, uHTS (AID 2006); type: protein-complex assay
[23] = target: Paired box protein Pax-8 (Homo sapiens, UniProt Q06710); test: inhibitors of PAX8-driven TPO luciferase reporter, dose response, RMG-I cells, cherry-pick (AID 687027); type: functional, cell-based;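 also: luciferase reporter driven by Pax8 target thyroperoxidase promoter measured by SteadyGlo luminescence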
[24] = target: T8, Kappa-type opioid receptor (Homo sapiens, UniProt P41145); test: SAR analysis of Antagonists of the Kappa Opioid Receptor (KOR) using an Image-Based Assay - Set 3. [Related pubchem assays (depositor defined):AID1777, AID1785]; type: functional
[25] = target: Mu-type opioid receptor (Homo sapiens, UniProt P35372); test: SAR Analysis of Antagonists of the MOR Receptor using an Image-Based Assay - Set 3. [Related pubchem assays (depositor defined):AID1777, AID1785, AID1786, AID1966, AID2133, AID2136, AID2284, AID2285, AID2420]; type: functional
[26] = target: Delta-type opioid receptor (Homo sapiens, UniProt P41143); test: SAR Analysis of Antagonists of the DOR Receptor using an Image-Based Assay - Set 3. [Related pubchem assays (depositor defined):AID1777, AID1785]; type: functional;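 also: U2OS cells expressing DOR1 and beta-arrestin GFP stimulated with 100 nM SNC80; imaging of GFP-tagged beta-arrestin moving into spots after receptor activation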
[27] = target: T8, Kappa-type opioid receptor; test: SAR analysis of small molecule antagonists of the kappa opioid receptor via a luminescent beta-arrestin assay - Set 3. [Related pubchem assays (depositor defined):AID1777, AID1778, AID1785, AID1786, AID1966, AID2133, AID2136, AID2285, AID2495]; type: functional
[28] = system: T-cell; test: inhibitors of CD8+ T cell–vesicle binding, dose response, mouse 2C CD8+ T cells, flow cytometry (AID 485284); type: functional
[29] = target: T9, Alkaline phosphatase, tissue-nonspecific isozyme (Homo sapiens, UniProt P05186); test: human TNAP enzyme inhibitors, SAR follow-up, biochemical, luminescent, dose response (AID 1056)
T9 sequence (P05186 whole entry): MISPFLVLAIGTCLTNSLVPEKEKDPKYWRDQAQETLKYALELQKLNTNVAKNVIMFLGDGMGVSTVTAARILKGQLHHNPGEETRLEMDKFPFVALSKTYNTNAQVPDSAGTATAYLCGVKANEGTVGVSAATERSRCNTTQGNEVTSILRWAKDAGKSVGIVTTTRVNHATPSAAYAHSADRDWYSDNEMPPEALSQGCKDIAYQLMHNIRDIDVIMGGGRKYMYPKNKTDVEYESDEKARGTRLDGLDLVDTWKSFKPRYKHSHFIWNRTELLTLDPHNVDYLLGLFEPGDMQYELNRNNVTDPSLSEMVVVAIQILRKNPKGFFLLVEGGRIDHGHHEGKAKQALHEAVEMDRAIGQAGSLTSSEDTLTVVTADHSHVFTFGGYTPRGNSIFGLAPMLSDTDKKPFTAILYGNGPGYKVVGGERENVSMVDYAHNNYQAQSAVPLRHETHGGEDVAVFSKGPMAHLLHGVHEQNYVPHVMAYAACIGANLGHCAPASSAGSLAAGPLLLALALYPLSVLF

[30] = target: Alkaline phosphatase, placental type (Homo sapiens, UniProt P05187); test: PLAP enzyme inhibitors, confirmation, biochemical, luminescence (AID 1512); type: functional

## CCOC(=O)N1CCN(C(S)=Nc2ccccc2C)CC1
[1]
  EC50: > 71.4 µM (inactive)

## COCCNC(=S)NN=C1CCCCCC1
[2]
  IC50: > 50 µM (inactive)
[3]
  IC50: > 50 µM (not active)

## O=C(Nc1cc(S(=O)(=O)N2CCOCC2)ccc1N1CCCC1)c1cc2c(s1)CCCC2
[4]
  IC50: > 32 µM (inactive)
[5]
  EC50: > 32 µM (inactive)
[6]
  EC50: > 32 µM (inactive)
[7]
  IC50: > 32 µM (inactive)
[8]
  IC50: > 32 µM (inactive)
[9]
  IC50: > 138 µM (inactive)
[10]
  EC50: > 32 µM (inactive)
[11]
  IC50: 5.47 µM (active)
[12]
  EC50: 1.57 µM (active)

## CCN(CC)S(=O)(=O)c1ccc(NC(=O)c2cccnc2Cl)c(NC(=O)c2cccnc2Cl)c1
[13]
  IC50: 4.18 µM (active)
[14]
  IC50: 8.8 µM (active)
[15]
  AC50: 7.02 µM (active)
[16]
  AC50: 23.2 µM (active)

## Cc1nn(Cc2ccccc2)c(Cl)c1C(=O)OC(C)C(=O)NCc1cccs1 (stereo not given)
[17]
  EC50: > 50 µM (inactive)

## COc1ccc(-c2nc3c(c(SCC(=O)Nc4cccc(O)c4)n2)Cc2c(CO)cnc(C)c2O3)cc1
[18]
  IC50: > 50 µM (inactive)
[19]
  IC50: 28.1 µM (active)
[20]
  IC50: > 49.8 µM (not active)
[21]
  IC50: 9.01 µM (active)
[22]
  IC50: 32.8 µM (active)
[23]
  AC50: 67.6 µM (active)

## O=C(Cn1c(=O)c2cccn2c2cccnc21)NCCCN1CCCCC1
[24]
  IC50: > 32 µM (inactive)
[25]
  IC50: > 32 µM (inactive)
[26]
  IC50: > 32 µM (inactive)
[27]
  IC50: > 20 µM (inactive)

## COc1ccc(C2=CC(=O)C[C@H](c3ccc4c(c3)OCO4)C2)cn1
[28]
  EC50: 19.9 µM (active)

## Cc1ccc(-n2nnnc2SCC(=O)c2ccc(O)c(O)c2)cc1
[29]
  IC50: 8.58 µM (active)
[30]
  IC50: 1.58 µM (active)
